Here are results for one compound from paper PMC10892288, “Early Stage Preclinical Formulation Strategies to Alter the Pharmacokinetic Profile of Two Small Molecule Therapeutics” (Pharmaceuticals, 2024).

Series [1] can be described thus: Water solubility (physiochemical properties). Type of series: physicochemical. Conditions: water.
A short description of series [2]: Log P (physiochemical properties). Type of series: physicochemical.
Series [3] is described as follows: Permeability (physiochemical properties). Type of series: in vitro ADME.
A short description of series [4]: Mouse PK of G7883, SC in sunflower oil. Type of series: in vivo. On the procedure:
was screened in different oil vehicles including corn, coconut, paraffin, soybean, and sunflower oil. […] For subcutaneous administrations, […] was formulated in sunflower oil as a suspension and dosed at 250 mg/kg with a dosing volume of 5 mL/kg. Food and water were available ad libitum to animals. Blood samples were collected post-dose into tubes containing K2EDTA as an anticoagulant. Samples were taken from three different animals at each time point. After the blood was mixed with K2EDTA, the samples were stored at -80 °C until analysis. All plasma and cell media concentrations of […] and […] were determined using liquid chromatography-tandem mass spectrometry after protein precipitation with acetonitrile and injection of the supernatant onto the column (Waters ACQUITY UPLC BEH C18 1.7 μm, 2.1 × 50 mm for […] and […]). The aqueous mobile phase was 0.1% formic acid, 2 mM ammonium formate in water/acetonitrile (v:v, 95:5), and the organic mobile phase was 0.1% formic acid, 2 mM ammonium formate in acetonitrile/water (v:v, 95:5). An AB Sciex API 4000 Triple Quad instrument was used for detecting […] and […] (Figure S2). The electrospray ionization source in both columns was operated in the positive ion and multiple reaction monitoring (MRM) detection modes. The MRM transitions for […] and […] were m/z 462.2 (Q1) and 253.10 (Q3) and m/z 454.2 (Q1) and 325.9 (Q3), respectively. The dynamic range of both assays was 0.50-50.0 ng/mL, and the total run time was 1.6 min. The lower limit of quantitation of the assay was […], and the dilution quality control concentration was set at 10 ng/mL with acceptance criteria for accuracy and precision of 25%. All plasma and cell media concentrations of […] were determined using liquid chromatography-tandem mass spectrometry after protein precipitation with acetonitrile and injection of the supernatant onto the column (Phenomenex Kinetex XB-C18, 30 × 2.1 mm, 2.6 μm). The aqueous mobile phase was 10 mM of ammonium formate in water, and the organic mobile phase was 0.1% formic acid in acetonitrile. An AB Sciex API 5500 Triple Quad instrument was used for detecting […]. The electrospray ionization source in both columns was operated in the positive ion and MRM detection modes. The MRM transitions for […] were m/z 462.2 (Q1) and 253.10 (Q3), respectively. The dynamic range of the assay was 0.50-50.0 ng/mL, and the total run time was 2 min. The lower limit of quantitation of the assay was […], and the dilution quality control concentration was set at 10 ng/mL with acceptance criteria for accuracy and precision of 25%.

The test system of a further series is TEAD. On the set-up: method as in PMID 33679401. The note with it: cellular assays; read-out: half-maximal inhibitory concentration (IC50) in cellular assays; cited from earlier work.
Setting [5] is: SC 250 mpk sunflower oil compared with PO 250 mpk.
Setting [6] is: plasma, 250 mg/kg, SC 250 mpk, sunflower oil suspension, mean ± SD.

≈ marks a conversion by molar mass, not a printed value.

The compound `Cc1nccnc1-c1nn2c(=O)cc(-c3ccc(C4CCCCC4)cc3)[nH]c2c1C(=O)N1CC(CF)C1` [G7883, 5-(4-cyclohexylphenyl)-3-[3-(fluoromethyl)azetidine-1-carbonyl]-2-(3-methylpyrazin-2-yl)-4H-pyrazolo[1,5-a]pyrimidin-7-one] displayed a solubility in series [1] of 85 µg/mL (≈ 170 µM). Also, the logP in series [2] came to 1.83. Besides, in series [3], the “permeability (in words)” value is “moderate permeability”. In series [3] (not told), this compound displayed a Papp of 5.79 ×10⁻⁶ cm/s. Also, the “reduction of Cmax, SC versus IP” value in series [4] (SC 250 mpk compared with IP 150 mpk) is reported as “approximately 4 fold”. Further, in series [4] (setting [5]), the “half-life extension, SC versus PO” value was 2.5 fold and the “increase of AUC, SC oil formulation versus oral” value is “more than 5 fold”. The compound also returned a F in series [4] (SC 250 mpk, sunflower oil suspension, mean ± SD, 250 mg/kg) of 46.4 ± 13.2%. Further, in series [4] (setting [6]), the AUC(0-t) came to 137 ± 51.1 µM·h, the concentration peaked (Cmax) at 16.7 ± 12 µM, the Tmax came to 2.67 ± 1.15 h and the half-life is 6.94 ± 2.93 h. The bioavailability in series [4] (plasma, sc, 250 mg/kg, SC 250 mpk, sunflower oil suspension, mean ± SD) turned out to be 46%. The IC50 in the series on TEAD is 1400 nM.

As a reminder, the solubility is the concentration that dissolves in the medium under given conditions. Low values mean a poorly soluble substance, high ones a readily soluble substance. In general, logP refers to a log measure of how a compound divides between an organic and an aqueous phase. A low value points to a more hydrophilic compound. As a reminder, the Papp is a coefficient for how fast a substance crosses the barrier. Read a high Papp as ready permeation. One may read the AUC(0-t) as the area under the concentration-time curve up to a stated or last time point. High values mean high exposure, low ones low exposure. Broadly, the Cmax is the maximum level reached in the sampled fluid or tissue. Usually Tmax stands for the time at which the peak concentration occurs. One may read the half-life as how long it takes for the measured level to halve. Low values mean rapid decline, high ones slow decline. A word on the bioavailability: it is dose-corrected exposure relative to a reference, in per cent. A lower bioavailability goes with poor availability.
